System: NOMO1
Experiment: cell viability relative to DMSO control; higher = less cytotoxic
Details: 48 h
In short: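 Viability values are per-plate percentages of DMSO wells, with background from cell-free wells. Library compounds in DMSO were pin-dosed, in an 11-point threefold series from 47 μM to 0.79 nM, onto NOMO1 or SEM (500 cells/well) or P12-Ichikawa (1000 cells/well) leukemia cells in 1536-well plates (5 μl). Those cells had been adapted for at least four passages in each medium, and CellTiter-Glo One luminescence was read after 48 h at 37°C.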

[1] = HPLM + 10% dialyzed FBS, 0.000781 µM
[2] = HPLM + 10% dialyzed FBS, 0.00234 µM
[3] = HPLM + 10% dialyzed FBS, 0.00702 µM
[4] = HPLM + 10% dialyzed FBS, 0.0211 µM
[5] = HPLM + 10% dialyzed FBS, 0.0632 µM
[6] = HPLM + 10% dialyzed FBS, 0.19 µM
[7] = HPLM + 10% dialyzed FBS, 0.569 µM
[8] = HPLM + 10% dialyzed FBS, 1.71 µM
[9] = HPLM + 10% dialyzed FBS, 5.12 µM
[10] = HPLM + 10% dialyzed FBS, 15.4 µM
[11] = HPLM + 10% dialyzed FBS, 46.1 µM
[12] = RPMI 5 mM glucose + 10% FBS, 0.000781 µM
[13] = RPMI 5 mM glucose + 10% FBS, 0.00234 µM
[14] = RPMI 5 mM glucose + 10% FBS, 0.00702 µM
[15] = RPMI 5 mM glucose + 10% FBS, 0.0211 µM
[16] = RPMI 5 mM glucose + 10% FBS, 0.0632 µM
[17] = RPMI 5 mM glucose + 10% FBS, 0.19 µM
[18] = RPMI 5 mM glucose + 10% FBS, 0.569 µM
[19] = RPMI 5 mM glucose + 10% FBS, 1.71 µM
[20] = RPMI 5 mM glucose + 10% FBS, 5.12 µM
[21] = RPMI 5 mM glucose + 10% FBS, 15.4 µM
[22] = RPMI 5 mM glucose + 10% FBS, 46.1 µM
[23] = RPMI 5 mM glucose + 10% dialyzed FBS, 0.000781 µM
[24] = RPMI 5 mM glucose + 10% dialyzed FBS, 0.00234 µM
[25] = RPMI 5 mM glucose + 10% dialyzed FBS, 0.00702 µM
[26] = RPMI 5 mM glucose + 10% dialyzed FBS, 0.0211 µM
[27] = RPMI 5 mM glucose + 10% dialyzed FBS, 0.0632 µM
[28] = RPMI 5 mM glucose + 10% dialyzed FBS, 0.19 µM
[29] = RPMI 5 mM glucose + 10% dialyzed FBS, 0.569 µM
[30] = RPMI 5 mM glucose + 10% dialyzed FBS, 1.71 µM
[31] = RPMI 5 mM glucose + 10% dialyzed FBS, 5.12 µM
[32] = RPMI 5 mM glucose + 10% dialyzed FBS, 15.4 µM
[33] = RPMI 5 mM glucose + 10% dialyzed FBS, 46.1 µM

Structure (SMILES)	cell viability [1] [%]	cell viability [2] [%]	cell viability [3] [%]	cell viability [4] [%]	cell viability [5] [%]	cell viability [6] [%]	cell viability [7] [%]	cell viability [8] [%]	cell viability [9] [%]	cell viability [10] [%]	cell viability [11] [%]	cell viability [12] [%]	cell viability [13] [%]	cell viability [14] [%]	cell viability [15] [%]	cell viability [16] [%]	cell viability [17] [%]	cell viability [18] [%]	cell viability [19] [%]	cell viability [20] [%]	cell viability [21] [%]	cell viability [22] [%]	cell viability [23] [%]	cell viability [24] [%]	cell viability [25] [%]	cell viability [26] [%]	cell viability [27] [%]	cell viability [28] [%]	cell viability [29] [%]	cell viability [30] [%]	cell viability [31] [%]	cell viability [32] [%]	cell viability [33] [%]
O=C(O)CCCCC(CCSCc1ccccc1)SCc1ccccc1 (centres undefined)	109	104	105	117	124	115	118	135	110	86	28.7	108	112	115	113	121	114	107	102	109	100	39.1	122	116	124	123	120	134	131	129	112	99.9	55.5
O=[N+]([O-])c1ncc[nH]1	90.7	84.4	90.2	78.4	91	97.4	89.7	89.4	80.8	91.7	75.8	86.3	85.5	90.9	84.2	90.9	87.3	84.1	76.9	80.3	85.7	74	88.5	93.7	88.7	87.2	75.8	82.5	78.6	81	83.2	76.1	87.7
Cc1nc2cc(C(=O)N3CCC4(CC3)CC(=O)c3c(cnn3C(C)C)C4)ccc2[nH]1	96.7	159	125	124	116	135	134	119	112	135	60.9	118	133	116	130	129	124	123	128	135	132	94.2	–	–	–	–	–	–	–	–	–	–	–
CN(C)c1ccc2nc3ccc(N(C)C)cc3[s+]c2c1	115	94.5	122	97.9	106	90.7	102	91.1	73.2	25.9	12.1	96	91.9	89.2	92.1	93.4	93.6	100	86.4	78.1	7.62	3.06	102	99.7	99.6	87.4	94.2	86.7	102	86.5	65	10.1	3.9
CC(C)N(C[C@H]1O[C@@H](n2cnc3c(N)ncnc32)[C@H](O)[C@@H]1O)[C@H]1C[C@@H](CCc2nc3cc(C(C)(C)C)ccc3[nH]2)C1	96.9	98.5	111	109	110	109	113	79.3	36.1	65.5	7.55	84	92.4	113	91.5	91.8	115	94.9	113	99.1	93.3	9	74.4	95.6	97.2	91.8	95.3	103	102	99.9	86.6	96.1	6.04
C[N]1C=C(C2=CC=CC=C12)\C3=C(\C(=O)NC3=O)C4=C[N](C5CCN(CC5)CC6=NC=CC=C6)C7=C4C=CC=C7	115	115	110	116	133	116	133	131	129	120	140	100	118	110	107	113	110	109	101	105	129	120	102	113	110	113	119	116	118	116	134	138	113
N#C/C(=C\c1ccc(O)c(O)c1)C(=O)NCc1ccccc1	103	111	124	110	98.6	118	122	98.5	91.7	92.8	64.7	100	93.2	84.5	93.3	106	92.1	86.7	91.3	96.5	97.6	89	98	103	110	105	102	110	99.3	108	89.7	95.4	83.8
COc1cc2ncn(-c3cc(OCc4ccccc4[S+](C)(=O)[O-])c(C#N)s3)c2cc1OC	101	91	105	101	84	108	92.8	95.8	82.7	81.2	68.9	90.9	89.9	97	84.6	99.7	97	103	88.8	82.1	90.4	73.8	107	98.6	100	100	90.8	98.7	95.3	101	89.4	94.8	62
CCn1c(-c2nonc2N)nc2c(C#CC(C)(C)O)ncc(OC[C@H]3CCCNC3)c21	91.3	88.8	80	96	73.4	75.8	71.9	61.7	70.3	71.7	48	80.8	82.5	84.1	84.1	79.8	87.3	81	83.5	82	84.1	49.3	77.2	96.1	86.8	93.7	80.6	84.3	74.4	82	74.2	79.2	68.2
OC1=CC2=C(C=C1)C(=O)\C(=C(O2)\C3=CC(=C(O)C=C3)O)O	105	98	108	93	102	97.1	91.2	105	84	93.9	65.6	85.9	91.3	96.2	6.71	96.6	85	99.7	88.9	74.5	74.8	67.5	96.5	103	101	96.3	100	92	93.3	89.5	81.3	81.3	60.1
CCC(C)N1\N=C/N(C1=O)C2=CC=C(C=C2)N3CCN(CC3)C4=CC=C(OC[C@H]5CO[C@@](C[N]6C=NC=N6)(O5)C7=CC=C(Cl)C=C7Cl)C=C4 (some centres undefined)	110	98.9	117	121	122	97.2	108	102	107	90.4	86	101	108	113	99.6	111	121	93.9	101	102	95.3	85.8	102	104	119	124	111	113	120	103	98.9	99.6	86.2
C[C@H](CCC(=O)O)[C@H]1CCC2C3C[C@H](O)[C@@H]4C[C@H](O)CC[C@]4(C)C3CC[C@@]21C (some centres undefined)	112	123	139	133	119	121	97.6	104	114	123	110	113	106	121	119	119	116	96.7	106	113	108	103	102	126	118	108	122	109	107	94.7	116	105	110
CN(C)C1=CC(=CC=C1)C\2=C\3C(=O)N(NC3=C/C(=O)N2C)C4=CC=CC=C4Cl	113	109	127	116	120	105	60.4	7.34	5.72	4.4	5.35	118	105	122	121	116	103	93	19.7	5.29	5.8	5.56	118	108	114	116	143	112	83.4	28.3	10.1	7.91	8.18
COc1ccc(OC)c(-c2nnc3ccc(-c4ccc(OC)c(O[C@@H]5CCOC5)c4)nn23)c1	–	–	–	–	–	–	–	–	–	–	–	–	–	–	–	–	–	–	–	–	–	–	123	120	140	128	137	140	134	147	137	145	98.3
